Reference: patent publication US8802103B2, “Compositions and methods for diagnosing and treating cancer” (OncoMed Pharmaceuticals, Inc., priority 2007, dated 2014)

Test system: UM-C17 colon tumor cells
Test: UM-C17 colon tumor xenograft growth
Format: in vivo, NOD/SCID mice
Conditions: 10 mg/kg i.p. two times per week from day 19, tumors approximately 100 mm^3
Experimental: In certain embodiments, anti-Jagged 1 antibodies were analyzed for their ability to reduce the growth of UM-C17 colon tumor cells. Dissociated UM-C17 cells (10,000 per animal) were injected subcutaneously into the right flank region of 6-8 week old NOD/SCID mice. Day 19 after tumor cell injection, when tumors were approximately 100 mm^3, animals were injected intraperitoneal (i.p.) with either 10 mg/kg 64M14 anti-Jagged 1 antibodies, 10 mg/kg 64M14 anti-Jagged 1 antibody and 10 mg/kg Avastin (anti-VEGF), Avastin alone, or control antibody anti-DNP (dinitrophenol or anti-hapten) (n=10 per group) two times per week for the duration of the experiment. Both treatment with 64M14 antibodies and Avastin reduced tumor growth by close to 50% compared to controls (FIG. 4).

With Avastin: anti-VEGF antibody the “reduction of tumor growth compared to control antibodies” value was ~50%.
